From ChEMBL document CHEMBL1201862, “PubChem BioAssay data set” (2004)
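Results reflect a 48-hour exposure of cells in 96-well plates to compound at five concentrations. GI50 marks 50% less growth.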 Active and inactive are the calls of the source. Rule as the data show it: active = GI50 up to about 1.1 µM and inactive = higher.

What was measured:
Experiment in all cases: NCI-60 cell line screen, 48 h
ACHN = test system: ACHN
CAKI-1 = test system: CAKI-1
CCRF-CEM = test system: CCRF-CEM
HCC 2998 = test system: HCC 2998
HCT-116 = test system: HCT-116
NCI-H460 = test system: NCI-H460
NCI-H522 = test system: NCI-H522
OVCAR-4 = test system: OVCAR-4
SF-268 = test system: SF-268
SF-295 = test system: SF-295
SK-MEL-28 = test system: SK-MEL-28
SK-OV-3 = test system: SK-OV-3
SW-620 = test system: SW-620
U-251 = test system: U-251
HOP-92 = test system: HOP-92
HL-60 = test system: HL-60

Measured: GI50

O=c1[nH]c2nc3ccccc3c(=O)n2nc1Cc1ccccc1
inactive: ACHN > 100 µM | CAKI-1 > 100 µM | CCRF-CEM > 100 µM | HCC 2998 > 100 µM | HCT-116 > 100 µM | NCI-H460 > 100 µM | NCI-H522 98.2 µM | OVCAR-4 28.3 µM | SF-268 > 100 µM | SF-295 > 100 µM | SK-MEL-28 > 100 µM | SK-OV-3 84.7 µM | SW-620 > 100 µM | U-251 > 100 µM

COc1ccccc1NC(=O)C1=C(C)NC(C)=C(C(=O)Nc2ccccc2OC)C1c1ccc(C(C)C)cc1
inactive: ACHN 65.9 µM | CAKI-1 > 100 µM | HCC 2998 63.7 µM | HCT-116 13.8 µM | HOP-92 82.4 µM | NCI-H460 61.1 µM | OVCAR-4 16.8 µM | SF-268 > 100 µM | SF-295 > 100 µM | SK-MEL-28 80.5 µM | SK-OV-3 > 100 µM | SW-620 > 100 µM | U-251 84.3 µM

CN1C(=O)C2C(C1=O)C1(O)c3ccccc3C2(N)c2ccccc21 (stereo not drawn)
inactive: ACHN > 100 µM | CAKI-1 > 100 µM | CCRF-CEM > 100 µM | HCC 2998 > 100 µM | HCT-116 > 100 µM | HL-60 > 100 µM | HOP-92 > 100 µM | NCI-H460 > 100 µM | OVCAR-4 > 100 µM | SF-268 > 100 µM | SF-295 > 100 µM | SK-MEL-28 > 100 µM | SK-OV-3 > 100 µM | SW-620 > 100 µM | U-251 > 100 µM

COC(=O)C(=O)C(/C(=N/N)C(=O)Nc1ccccc1C(N)=O)c1nc2ccc([N+](=O)[O-])cc2nc1O (stereo not drawn)
inactive: ACHN > 100 µM | CAKI-1 > 100 µM | CCRF-CEM > 100 µM | HCC 2998 > 100 µM | HCT-116 > 100 µM | HL-60 > 100 µM | NCI-H460 > 100 µM | NCI-H522 > 100 µM | OVCAR-4 > 100 µM | SF-268 > 100 µM | SF-295 > 100 µM | SK-MEL-28 > 100 µM | SW-620 > 100 µM | U-251 > 100 µM

COc1ccc(C2C(Cl)C(=O)N2n2cnc3ccccc3c2=O)cc1 (stereo not drawn)
inactive: ACHN 40.5 µM | CAKI-1 82.8 µM | CCRF-CEM > 10 µM | HCC 2998 > 100 µM | HCT-116 54.6 µM | HL-60 59.2 µM | NCI-H460 70.5 µM | NCI-H522 89.3 µM | OVCAR-4 33.3 µM | SF-268 87.9 µM | SF-295 > 100 µM | SK-MEL-28 > 100 µM | SK-OV-3 > 100 µM | SW-620 > 100 µM | U-251 > 100 µM

CCC1C(=O)OCc2c1cc1n(c2=O)Cc2ccccc2-1 (stereo not drawn)
inactive: ACHN > 100 µM | CAKI-1 34.2 µM | CCRF-CEM > 100 µM | HCC 2998 > 100 µM | HCT-116 > 100 µM | HL-60 > 100 µM | HOP-92 > 100 µM | NCI-H460 > 100 µM | OVCAR-4 > 100 µM | SF-268 > 100 µM | SF-295 > 100 µM | SK-MEL-28 > 100 µM | SW-620 > 100 µM

CC(=O)c1c(C)[n+]([O-])c2cc(C)c(C)cc2[n+]1[O-]
inactive: ACHN > 100 µM | CAKI-1 > 100 µM | CCRF-CEM > 100 µM | HCC 2998 > 100 µM | HL-60 > 100 µM | NCI-H460 > 100 µM | NCI-H522 > 100 µM | OVCAR-4 > 100 µM | SF-268 > 100 µM | SF-295 > 100 µM | SK-MEL-28 > 100 µM | SK-OV-3 > 100 µM | SW-620 > 100 µM | U-251 > 100 µM
